# Where “and” joins values, the source holds several entries; their conditions need not be identical. Equal values may be shown once.
# Assays:
# Transthyretin (TTR) [1] = assay: Serum TTR measurement in rats after LNP dosing; assay type: in vivo, Sprague Dawley female rats; conditions: Experiment 109; for Serum TTR % TSS: rat serum TTR relative to TSS control; for Serum TTR: rat serum, G534 sgRNA + Cas9 mRNA LNP
# mouse TTR gene = assay: In vivo editing in mouse liver, sgRNA targeting TTR (G282 or G502), % indel by NGS; set-up: species or system CD-1 female mice
# Method: (§1) CD-1 female mice ranging from 6-10 weeks of age were used in each study. Animals were weighed and grouped according to body weight for preparing dosing solutions based on group average weight. LNPs were dosed via the lateral tail vein in a volume of 0.2 mL per animal (approximately 10 mL per kilogram body weight). The animals were periodically observed for adverse effects for at least 24 hours post dose. For studies measuring in vivo editing in liver, CD-1 female mice were dosed at 0.1 mg/kg unless otherwise noted. Animals were euthanized at 6 or 7 days by ex sanguination via cardiac puncture under isoflurane anesthesia. Liver tissue was collected from each animal for DNA extraction and analysis. Blood was collected into serum separator tubes or into tubes containing buffered sodium citrate for plasma as described herein. Cohorts of mice were measured for editing by Next-Generation Sequencing (NGS).
# (§2) In brief, to quantitatively determine the efficiency of editing at the target location in the genome, genomic DNA was isolated and deep sequencing was utilized to identify the presence of insertions and deletions introduced by gene editing.
# (§3) PCR primers were designed around the target site (e.g., within B2M), and the genomic area of interest was amplified. Additional PCR was performed according to the manufacturer's protocols (Illumina) to add the necessary chemistry for sequencing. The amplicons were sequenced on an Illumina MiSeq instrument. The reads were aligned to the mouse or rat reference genome (e.g., GRCm38) after eliminating those having low quality scores. The resulting files containing the reads were mapped to the reference genome (BAM files), where reads that overlapped the target region of interest were selected and the number of wild type reads versus the number of reads which contain an insertion, substitution, or deletion was calculated.
# (§4) The editing percentage (e.g., the “indel efficiency” or “percent indels”) was defined as the total number of sequence reads with insertions or deletions over the total number of sequence reads, including wild type.
# (§5) We assessed in vivo editing efficiency for materials delivered with formulations including various amine lipid compounds. Editing was measured using either G282 (SEQ ID No: 1) which targets the mouse TTR gene or G650 (SEQ ID No. 2) which targets the mouse B2M gene. Lipids described above were assessed for efficacy through in vivo editing experiments. LNPs were formulated at a 1:1 or 1:1.3 w/w ratio of sgRNA to Cas9 mRNA, and at an N/P ratio of about 6. Molar concentrations of lipids in the lipid component of the LNPs are used at mol % amine lipid/DSPC/cholesterol/PEG-2k-DMG of 50/9/38/3. The final LNPs were characterized to determine the encapsulation efficiency, polydispersity index, and average particle size according to the analytical methods provided above. Analysis of average particle size, polydispersity (PDI), total RNA content and encapsulation efficiency of RNA are shown in Table 2.
# To assess whether the editing was dose responsive, experiments were performed in vivo at various LNP dose levels. Cas9 mRNA of Example 120 was formulated as LNPs with an sgRNA targeting TTR (G282, SEQ ID NO: 1; or G502, SEQ ID NO: 4).
# We assessed in vivo delivery by measuring editing efficiency for materials delivered with formulations that included various amine lipid compounds. Cas9 mRNA (SEQ ID NO: 6) was formulated as LNPs with an sgRNA targetting the TTR mouse gene (SEQ ID NO: 4). LNPs were formulated at a 1:2 w/w ratio of sgRNA to Cas9 mRNA, and at an N/P ratio of about 6. Molar concentrations of lipids in the lipid component of the LNPs are used at mol % amine lipid/DSPC/cholesterol/PEG-2k-DMG of 50/9/38/3. The final LNPs compositions were characterized and analyzed as described in Example 120. Analysis of average particle size, polydispersity (PDI), total RNA content and encapsulation efficiency of RNA are shown in Table 6.
# Transthyretin (TTR) [2] = assay: Serum TTR ELISA in mice after LNP dosing; assay type: in vivo, CD-1 female mice
# Procedure, shortened: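 Serum mouse TTR was quantified by ELISA at 10,000-fold dilution for 0.1 mg/kg and 10,000/2,500-fold for 0.3 mg/kg. Samples came from female CD-1 mice (6–10 weeks) killed 6 or 7 days after a single intravenous LNP dose, usually 0.1 mg/kg.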
# mouse B2M gene = assay: In vivo editing in mouse liver, sgRNA targeting B2M (G650), % indel by NGS; set-up: species or system CD-1 female mice; conditions: for Editing Mean % Indel: mouse liver, guide G650, Experiment 104; for Liver editing (%): mouse, experiment 108
# Method: as §1, §2, §3, §4, §5
# Alternatively, Cas9 mRNA of Example 120 was formulated as LNPs with an sgRNA targeting B2M (G650, SEQ ID NO: 2) These LNPs were formulated at a w/w ratio of a sgRNA and Cas9 mRNA as indicated in Table 4. The LNPs were formulated using the cross flow procedure with lipid molar compositions of mol % amine lipid/DSPC/cholesterol/PEG-2k-DMG of 50/9/38/3 and an N/P ratio of 6.0. […]
# CD-1 female mice were dosed i.v. at 0.1, 0.3, or 1 mg/kg and assessed for editing in liver, spleen, and bone marrow.
# [3] = LNP i.v. 0.03 mg/kg, guide G502, Experiment 105
# [4] = LNP i.v. 0.1 mg/kg, guide G502, Experiment 105
# [5] = mouse serum TTR relative to TSS control, guide G282 experiments
# [6] = mouse serum, guide G282 experiments, ELISA
# [7] = mouse, LNP i.v. 0.03 mg/kg, guide G502, Experiment 105
# [8] = mouse, LNP i.v. 0.03 mg/kg, guide G502, Experiment 105, relative to TSS control
# [9] = mouse, LNP i.v. 0.1 mg/kg, guide G502, Experiment 105
# [10] = mouse, LNP i.v. 0.1 mg/kg, guide G502, Experiment 105, relative to TSS control
# [11] = LNP i.v. 0.1 mg/kg, guide G282, Experiments 101-103
# [12] = LNP i.v. 0.3 mg/kg, guide G282, Experiments 101-103
# [13] = mouse, LNP i.v. 0.1 mg/kg, guide G282, Experiments 101-103
# [14] = mouse, LNP i.v. 0.1 mg/kg, guide G282, Experiments 101-103, relative to TSS control
# [15] = mouse, LNP i.v. 0.3 mg/kg, guide G282, Experiments 101-103
# [16] = mouse, LNP i.v. 0.3 mg/kg, guide G282, Experiments 101-103, relative to TSS control
Compound,"Serum TTR % TSS (Transthyretin (TTR) [1]; G534, i.v. 0.1 mg/kg)","Serum TTR % TSS (Transthyretin (TTR) [1]; G534, i.v. 0.3 mg/kg)",Serum TTR (Transthyretin (TTR) [1]; i.v. 0.1 mg/kg),Serum TTR (Transthyretin (TTR) [1]; i.v. 0.3 mg/kg),Editing Mean % Indel (mouse TTR gene; [3]),Editing Mean % Indel (mouse TTR gene; [4]),Serum TTR % TSS (Transthyretin (TTR) [2]; [5]),Serum TTR (Transthyretin (TTR) [2]; [6]),Serum TTR (Transthyretin (TTR) [2]; [7]),Serum TTR % TSS (Transthyretin (TTR) [2]; [8]),Serum TTR (Transthyretin (TTR) [2]; [9]),Serum TTR % TSS (Transthyretin (TTR) [2]; [10]),Editing Mean % Indel (mouse TTR gene; [11]),Editing Mean % Indel (mouse TTR gene; [12]),Serum TTR (Transthyretin (TTR) [2]; [13]),Serum TTR % TSS (Transthyretin (TTR) [2]; [14]),Serum TTR (Transthyretin (TTR) [2]; [15]),Serum TTR % TSS (Transthyretin (TTR) [2]; [16]),Editing Mean % Indel (mouse B2M gene; LNP i.v. 0.1 mg/kg),Editing Mean % Indel (mouse B2M gene; LNP i.v. 0.3 mg/kg),further results
"CCCCCCCCCC(C)OC(=O)CCCCCCCC(=O)OCC(COC(=O)CCC(OCCCCCCCC)OCCCCCCCC)COC(=O)OCCCN(CC)CC (stereo not shown) [Compound 94, 1-(344,4-bis(octyloxy)butanoyl)oxy)-2-((((3-(diethylamino)propoxy)carbonyl)oxy)methyl)propyl) 9-(undecan-2-yl) nonanedioate]",39.5 % TSS,8.2 % TSS,639.5 µg/mL,132.9 µg/mL,19.76%,43.52%,38%,286 µg/mL,605 µg/mL,55%,352 µg/mL,32%,–,–,–,–,–,–,–,–,–
"CCCCCCCCCCOC(=O)CCCCCCCC(=O)OCC(COC(=O)CCC(OCCCCCCCC)OCCCCCCCC)COC(=O)OCCCN(CC)CC (stereo not shown) [Compound 59, 1-(3-((4,4-bis(octyloxy)butanoyl)oxy)-2-((((3-(diethylamino)propoxy)carbonyl)oxy)methyl)propyl) 9-decyl nonanedioate]",69.4 % TSS,20.9 % TSS,1124.0 µg/mL,337.9 µg/mL,11.8%,35.64%,40% and 57% and 66%,367 µg/mL and 431 µg/mL and 604 µg/mL,909 µg/mL,83%,467 µg/mL,42%,32.4%,63.9%,300 µg/mL,49%,43 µg/mL,7%,21.2%,51.6%,–
"CCCCC/C=C\C/C=C\CCCCCCCC(=O)OCC(COC(=O)CCC(OCCCCCCCC)OCCCCCCCC)COC(=O)NCC1CCCN1CC (stereo not shown) [Compound 40, 3-((4,4-bis(octyloxy)butanoyl)oxy)-2-(((((1-ethylpyrrolidin-2-yl)methyl)carbamoyl)oxy)methyl)propyl (9Z,12Z)-octadeca-9,12-dienoate]",–,–,–,–,–,–,44%,393 µg/mL,–,–,–,–,30.2%,68.0%,443 µg/mL,48%,80 µg/mL,9%,–,–,–
"CCCCC/C=C\C/C=C\CCCCCCCC(=O)OCC(COC(=O)CC12CC3CC(CC(C3)C1)C2)COC(=O)OCCCN(CC)CC (stereo not shown) [Compound 107, 3-(2-((3 r,5 r, 7r)-adamantan-1-yl)acetoxy)-2-((((3-(diethylamino)propoxy)carbonyl)oxy)methyl)propyl (9Z,12Z)-octadeca-9,12-dienoate]",–,–,–,–,–,–,–,–,–,–,–,–,–,–,–,–,–,–,–,–,"Liver editing (%) (mouse B2M gene; G650, i.v. dose 0.1 mg/kg): 0.52%; Liver editing (%) (mouse B2M gene; G650, i.v. dose 0.3 mg/kg): 1.04%; Liver editing (%) (mouse B2M gene; G650, i.v. dose 1 mg/kg): 5.92%"
"CCCCC/C=C\C/C=C\CCCCCCCC(=O)OCC(COC(=O)CCC(OCCCCCCCC)OCCCCCCCC)COC(=O)OCC1CCCN(C)C1 (stereo not shown) [Compound 53, 3-((4,4-bis(octyloxy)butanoyl)oxy)-2-(((((1-methylpiperidin-3-yl)methoxy)carbonyl)oxy)methyl)propyl (9Z,12Z)-octadeca-9,12-dienoate]",–,–,–,–,–,–,47%,413 µg/mL,–,–,–,–,8.6%,48.2%,619 µg/mL,67%,231 µg/mL,25%,–,–,–
"CCCCC/C=C\C/C=C\CCCCCCCC(=O)OCC(COC(=O)CCC(OCCCCCCCC)OCCCCCCCC)COC(=O)OCCCN(CC)CC (stereo not shown) [Compound 1, 3-((4,4-bis(octyloxy)butanoyl)oxy)-2-((((3-(diethylamino)propoxy)carbonyl)oxy)methyl)propyl (9Z,12Z)-octadeca-9,12-dienoate, reference compound]",56.6 % TSS,7.1 % TSS,916.9 µg/mL,114.3 µg/mL,9.24%,47.62%,–,–,931 µg/mL,85%,294 µg/mL,27%,–,–,–,–,–,–,17.8%,50.3%,"Serum TTR % TSS (Transthyretin (TTR) [2]; mouse serum TTR relative to TSS control, guide G502, i.v. 0.1 mg/kg, 0.1 mg/kg): 53.7% and 37.8%; Serum TTR (Transthyretin (TTR) [2]; mouse serum, guide G502, i.v. 0.1 mg/kg, 0.1 mg/kg): 593.76 µg/mL and 442 µg/mL; Serum TTR % TSS (Transthyretin (TTR) [2]; mouse, LNP i.v. 0.1 mg/kg, guide G282, Experiments 101-103, relative to TSS control, 0.1 mg/kg): 79% and 54% and 76%; Serum TTR % TSS (Transthyretin (TTR) [2]; mouse, LNP i.v. 0.3 mg/kg, guide G282, Experiments 101-103, relative to TSS control, 0.3 mg/kg): 20% and 13%; Liver editing (%) (mouse B2M gene; G650, i.v. dose 0.1 mg/kg): 23.74%; Liver editing (%) (mouse B2M gene; G650, i.v. dose 0.3 mg/kg): 58.48%; Liver editing (%) (mouse B2M gene; G650, i.v. dose 1 mg/kg): 73.6%"
